Assay results published in US7943749B2, “Antimicrobial 2-deoxystreptamine compounds” (Isis Pharmaceuticals, Inc., priority 2004, dated 2011).
Where “and” joins values, the source holds several entries; their conditions need not be identical. Equal values may be shown once. Read-outs that look alike come from different tables or passages of the source.

Assays:
[1] = tested on: E. Coli; assay: MIC, E. Coli; format: cell-based; settings: 24 h;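 also: minimum inhibitory concentration determined in duplicate in 96-well plates, compounds given in 4% aqueous DMSO, with ampicillin and tetracycline as positive controls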
Protocol: (§1) The MIC assays are carried out in 150 μL volume in duplicate in 96-well clear flat-bottom plates. The bacterial suspension from an overnight culture growth in appropriate medium is added to a solution of test compound in 4% DMSO in water. Final bacterial inoculum is approximately 10^5-10^6 CFU/well. […] Both ampicillin and tetracycline are used as antibiotic-positive controls in each screening assay for S. pyogenes, E. coli imp-, E. coli, S. aureus, E. faecalis, K. pneumoniae and P. vulgaris. Ciprofloxacin is used as an antibiotic positive control in each screening assay for P. aeruginosa.

[2] = tested on: S. Aureus; assay: MIC, S. Aureus; format: cell-based; settings: 24 h
Protocol: as §1

[3] = biological target: 16S ribosomal subunit RNA target; assay: Mass spectrometry based binding assay (FTICR), 16S
Protocol: In a typical experiment, 10 μL of an aqueous solution containing 100 mM ammonium acetate buffer, 2.5 or 5 μM of each RNA, and 33% isopropyl alcohol (to aid ion desolvation) was prepared with different concentrations of each ligand or ligand mixture. Samples were introduced into the electrospray ionization source (negative ionization mode) at 1 μL/min and ions were stored for 1 sec in an RF-only hexapole following desolvation. The abundances were integrated from the respective ions for free RNA and the ligand-RNA complex. The primary (1:1 RNA:ligand) and secondary (1:2 complex, if observed). […] The peak ratios were measured at each concentration, then a plot of complex/free RNA versus concentration of ligand added was fitted to a second (or higher) order binding polynomial to determine the KD.

[4] = tested on: E. coli S30 bacterial extract (pBestLuc luciferase reporter); assay: Coupled bacterial transcription/translation assay; format: biochemical; settings: read-out: Trans/trans IC50
Protocol: The DNA template, pBestLuc™ (Promega), is a plasmid containing a reporter gene for firefly luciferase fused to a strong tac promoter and ribosome binding site. Messenger RNA from 1 μg pBestLuc is transcribed and translated in E. coli S30 bacterial extract in the presence or absence of test compound. Compounds are tested in a black 96 well microtiter plate with an assay volume of 35 μL. […] The transcription/translation reaction is incubated for 35 minutes at 37° C. followed by detection of functional luciferase with the addition of 30 μL LucLite™ (Packard). Light output is quantitated on a Packard TopCount.

[5] = tested on: S. aureus (ATCC 13709)
Protocol: Male ICR mice are fed with autoclaved commercial food pellets and sterile water ad libitum. Animals are inoculated intraperitoneally with 1.0×10^6 CFU/0.5 mL/mouse of S. aureus (ATCC 13709) containing 10% mucin. Ten animals each are randomly assigned to either control or treatment groups. Test compound and gentamycin (included as a positive control) are both administered subcutaneously one and 3 hour after infection. Test compound is administered as an aqueous buffer solution (phosphate buffered saline (PBS), pH=7.4). The data is presented as the number of mice out of the 10 in the group that were not protected from lethal infection.

[6] = range between growth and complete inhibition

Structure (SMILES): NCC1OC(OC2C(CO)OC(OC3C(O)C(N)CC(N)C3OC3OC(CO)C(O)C(O)C3N)C2OCCNC23CC4CC(CC(O)(C4)C2)C3)C(N)C(O)C1O (centres unmarked) [IBIS00561195]
- MIC E. Coli. [1]: 20 to 40 µM
- MIC S. Aureus [2]: 1 to 3 µM

Structure (SMILES): NCC1OC(OC2C(CO)OC(OC3C(O)C(N)CC(N)C3OC3OC(CO)C(O)C(O)C3N)C2OCCNc2cccnc2)C(N)C(O)C1O (centres unmarked) [IBIS00560798]
- MIC E. Coli. [1, 6]: 3 to 6 µM
- Kd [3]: 550 nM
- IC50 [4]: 80 nM
- MIC S. Aureus [2, 6]: 0.6-1^ μM

Structure (SMILES): NCC1OC(OC2C(CO)OC(OC3C(O)C(N)CC(N)C3OC3OC(CO)C(O)C(O)C3N)C2OCCNCCCCc2ccccc2)C(N)C(O)C1O (centres unmarked) [IBIS00561145]
- MIC E. Coli. [1]: 3 to 5 µM
- MIC S. Aureus [2]: 0.6 to 1.2 µM

Structure (SMILES): CN(C)CCOC1C(OC2C(O)C(N)CC(N)C2OC2OC(CO)C(O)C(O)C2N)OC(CO)C1OC1OC(CN)C(O)C(O)C1N (centres unmarked) [IBIS00560174]
- MIC E. Coli. [1, 6]: 12 to 52 µM
- Kd [3]: 930 nM
- IC50 [4]: 210 nM
- MIC S. Aureus [2, 6]: 6 to 12 µM

Structure (SMILES): NCC1OC(OC2C(CO)OC(OC3C(O)C(N)CC(N)C3OC3OC(CO)C(O)C(O)C3N)C2OCCNCc2ccnc(N)c2)C(N)C(O)C1O (centres unmarked) [IBIS00560965]
- MIC E. Coli. [1]: 6 to 12 µM
- MIC S. Aureus [2]: 0.6-1^ μM

Structure (SMILES): NCC1OC(OC2C(CO)OC(OC3C(O)C(N)CC(N)C3OC3OC(CO)C(O)C(O)C3N)C2OCCNCCc2ccccc2)C(N)C(O)C1O (centres unmarked) [IBIS00560973]
- MIC E. Coli. [1]: 3 to 6 µM
- MIC S. Aureus [2]: 0.3 to 0.6 µM
- number of mice out of the 10 in the group that were not protected from lethal infection ([5]; 0.1 mg/kg subcutaneously 1 and 3 hour after i.p. infection): 5/10
- number of mice out of the 10 in the group that were not protected from lethal infection ([5]; 0.5 mg/kg subcutaneously 1 and 3 hour after i.p. infection): 0/10
- number of mice out of the 10 in the group that were not protected from lethal infection ([5]; 1 mg/kg subcutaneously 1 and 3 hour after i.p. infection): 0/10
- number of mice out of the 10 in the group that were not protected from lethal infection ([5]; 2 mg/kg subcutaneously 1 and 3 hour after i.p. infection): 0/10
- number of mice out of the 10 in the group that were not protected from lethal infection ([5]; 4.5 mg/kg subcutaneously 1 and 3 hour after i.p. infection): 0/10
- number of mice out of the 10 in the group that were not protected from lethal infection ([5]; 9 mg/kg subcutaneously 1 and 3 hour after i.p. infection): 0/10
- number of mice out of the 10 in the group that were not protected from lethal infection ([5]; 18 mg/kg subcutaneously 1 and 3 hour after i.p. infection): 0/10
- number of mice out of the 10 in the group that were not protected from lethal infection ([5]; 37 mg/kg subcutaneously 1 and 3 hour after i.p. infection): 0/10
- number of mice out of the 10 in the group that were not protected from lethal infection ([5]; 75 mg/kg subcutaneously 1 and 3 hour after i.p. infection): 0/10
- prevention of lethal bacterial infection in mice (in words) ([5]; S. aureus ATCC 13709 i.p., compound s.c.): effective at preventing lethal bacterial infections in mice
- number of mice out of the 10 in the group that were not protected from lethal infection ([5]; mouse, in vivo): 1/10

Structure (SMILES): NCC1OC(OC2C(CO)OC(OC3C(O)C(N)CC(N)C3OC3OC(CO)C(O)C(O)C3N)C2OCCNCc2ccc(N)nc2)C(N)C(O)C1O (centres unmarked) [IBIS00560975]
- MIC E. Coli. [1]: 3 to 6 µM
- MIC S. Aureus [2]: 0.3 to 0.6 µM

Structure (SMILES): NCC1OC(OC2C(CO)OC(OC3C(O)C(N)CC(N)C3OC3OC(CO)C(O)C(O)C3N)C2OCCNCCc2cccnc2)C(N)C(O)C1O (centres unmarked) [IBIS00560972]
- MIC E. Coli. [1]: 6 to 12 µM
- MIC S. Aureus [2]: 0.6-1^ μM

Structure (SMILES): NCC1OC(OC2C(CO)OC(OC3C(O)C(N)CC(N)C3OC3OC(CO)C(O)C(O)C3N)C2OCCNCc2ccccc2)C(N)C(O)C1O (centres unmarked) [IBIS00560974]
- MIC E. Coli. [1]: 3 to 6 µM
- MIC S. Aureus [2]: 3 to 5 µM

Structure (SMILES): NCCCNCCOC1C(OC2C(O)C(N)CC(N)C2OC2OC(CO)C(O)C(O)C2N)OC(CO)C1OC1OC(CN)C(O)C(O)C1N (centres unmarked) [IBIS00560175]
- MIC E. Coli. [1, 6]: 25 to 50 µM and 25 µM
- IC50 [4]: 290 nM
- MIC S. Aureus [2, 6]: 3 to 6 µM and 3 µM

Structure (SMILES): NCC1OC(OC2C(CO)OC(OC3C(O)C(N)CC(N)C3OC3OC(CO)C(O)C(O)C3N)C2OCCNC2CCCCC2)C(N)C(O)C1O (centres unmarked) [IBIS00560931]
- MIC E. Coli. [1]: 3 to 6 µM
- MIC S. Aureus [2]: 3 to 5 µM

Structure (SMILES): NCCN(CCN)CCOC1C(OC2C(O)C(N)CC(N)C2OC2OC(CO)C(O)C(O)C2N)OC(CO)C1OC1OC(CN)C(O)C(O)C1N (centres unmarked) [IBIS00560172]
- MIC E. Coli. [1, 6]: >50 µM
- MIC S. Aureus [2, 6]: 25 to 50 µM

Structure (SMILES): NCC1OC(OC2C(CO)OC(OC3C(O)C(N)CC(N)C3OC3OC(CO)C(O)C(O)C3N)C2OCCNCC2CCCNC2)C(N)C(O)C1O (centres unmarked) [IBIS00560726]
- Kd [3]: 250 nM and 130 nM
